The values that follow come from PMC4240912, “Multifaceted interplay between lipophilicity, protein interaction and luminescence parameters of non-intercalative ruthenium(II) polypyridyl complexes controlling cellular imaging and cytotoxic properties” (Journal of Biological Inorganic Chemistry, 2014).

Data set [1] relates to 4T1 breast cancer cell line. Description: Alamar Blue cell viability, 4T1. The following applies: 4T1, 24 h incubation. The class given is cell-based. The procedure: 4T1 breast cancer cell line was cultured in RPMI-1640 (Gibco Invitrogen) with 10 % fetal bovine serum (FBS, the bovine serum albumin is a major component), 1 % penicillin and streptomycin and 0.2 % fungizone. Cells were routinely cultured at 37 °C in a humidified incubator in 5 % CO2 atmosphere. Cell viability was measured using Alamar Blue assay. Cells were seeded on 96-well plate with density of 10^4 cells per cm^2 and cultured for 24 h in medium with or without 2 % serum. Then cells were incubated with various concentrations of ruthenium compounds for 24 h in the dark. All used ruthenium complexes were freshly diluted in DMSO and then added to the appropriate medium to obtain the applied concentrations. The final DMSO concentration was kept constant at 0.05 % (v/v). Next cells were washed with PBS and incubated in AlamarBlue solution (21 times diluted in PBS) for 3 h. Alamar Blue test is based on the reduction of blue and non-fluorescent subtract (resazurin) to a pink and highly fluorescent product (resorufin) by the alive cells. Extract mechanism of the reduction is still unknown, but it is postulated that reduction occurs by mitochondrial or cytoplasmic enzymes, such as NADH dehydrogenase or diaphorase. It is still not known whether this process occurs intracellularly, at the plasma membrane surface or just in the medium as a chemical reaction. The cell viability was quantified at 605 nm using 560 nm excitation light (VICTOR 3V multilabel plate readers, PerkinElmer). Experiments were performed in triplicates and each experiment was performed at least three times to get the mean values ± standard deviation. The viability was calculated with regard to the untreated cells control. The IC50 values were determined using Hill equation (Origin 9.0): y=y0+y100-y0c^H/IC50^H+c^H

In data set [2] the test system is FVB mouse lung microvascular endothelial cells (MLuMEC FVB). Put plainly: Alamar Blue cell viability, MLuMEC. In kind it is cell-based. The following applies: 24 h. The protocol:
(§1) FVB mouse lung microvascular endothelial cells (MLuMEC FVB) and murine endothelial cells isolated from aorta-gonad-mesonephros (AGM) region of 10.5 dpc embryos (MAgEC 10.5) were cultured in OptiMEM with Glutamax-I (Gibco Invitrogen) supplemented with 2% fetal bovine serum (FBS), 0.4% gentamycin and 0.2% fungizone. […]
(§2) 10% FBS, 1% peniciline and streptomycin and 0.2% fungizone. Cells were routinely cultured at 37 °C in a humidified incubator in 5% CO2 atmosphere.
(§3) Cell viability was measured using Alamar Blue assay. Cells were seeded on 96 wells plate with density of 1 × 10^4 cells per cm2 and cultured for 1 day. Then cells were incubated with various concentrations of compounds in medium with or without 2% FBS for 24 and 48 h under normoxic and hypoxic conditions in the darkness. Next cells were washed with PBS and incubated in Alamar Blue solution for 3 h. The cell viability was quantified at 605 nm using 560 nm excitation light (VICTOR 3V multilabel plate reader PerkinElmer or Tecan Infinite200 Reader). Experiments were performed in triplicates and each experiment was performed at least three times to get the mean values ± standard derivation. The viability was calculated with regard to the untreated cells control. The IC50 values were determined using Hill equation (Origin 9.0). […]

The test system of data set [3] is murine endothelial cells isolated from aorta-gonad-mesonephros (AGM) region of 10.5 dpc embryos (MAgEC 10.5). Description: Alamar Blue cell viability, MAgEC 10.5. In kind it is cell-based. The following applies: MAgEC 10.5, 24 h. The protocol:
as §1, §2, §3

The nature of data set [4]: Luminescence quantum yield and lifetime in aqueous solution. The class given is physicochemical. The protocol: UV–Vis absorption spectra were recorded on a Perkin Elmer Lambda 35 spectrophotometer. Luminescence measurements were performed on a spectrofluorimeter Perkin Elmer LS55. The spectra were recorded at the room temperature in aqueous solution containing small amount of DMSO (<0.008 % v/v). The emission spectra were recorded between 470 and 860 nm upon excitation at 463 nm. The average of three scans was subjected to smoothing. For determination of the quantum yield of luminescence (Φ), aqueous solutions of [Ru(bpy)3]^2+ with a small amount of DMSO (<0.008 % v/v) were used as standards (Φ = 0.028 [14] and 0.042 [20] for air-equilibrium and deoxygenated conditions, respectively). The spectra were recorded for ruthenium complexes at the concentration less than 0.05 absorbance unit at the excitation wavelength. Values were calculated according to the following equation [21]: Φ=Φref×Aref/A×I/Iref×n^2/nref2, where I is the integrated intensity of luminescence, A is the optical density, and n is the refractive index, ref refers to the values for reference. The mean value from minimum three independent experiments was calculated.
The luminescence lifetime measurements were performed with a single photon counting technique using Fluorolog-3, Horiba Jobin Yvon. The excitation wavelength was set at 464 nm (NanoLed Diodes) and the average lifetime of luminescence was monitored at 621 nm. Luminescence decays were collected with 1,000 counts in the peak. The instrument response functions were measured using a light scattering solution of Ludox (colloidal silica, Sigma-Aldrich). Experiments were conducted at room temperature. The DAS6 software (HORIBA Scientific) was used for deconvolution of the obtained decays and for calculation of the lifetime values. The quality of the fit was judged by the χ ^2 parameter (the goodness of fit evaluation). One-exponential fit was determined to be an optimal description of the obtained results for the ruthenium compounds.

The next data set has as its system 4T1 cells. Put plainly: Ruthenium uptake measured by ICP-MS. In kind it is cell-based. Conditions: 4T1, [Ru-complex] = 2 µM, 24 h. The procedure: Cells were seeded on a 6-well plate with a density of 3 × 10^5 cells per cm^2. 24 h after the incubation ruthenium complexes were added at 2 µM concentration. Cells were incubated in medium without serum for 24 h. After incubation cells were washed twice with PBS, detached by trypsin (trypsin/EDTA from Gibco) treatment, diluted in PBS and counted. Cells were digested in concentrated nitric acid overnight at room temperature and then diluted with water. The ruthenium content of the sample was determined by the inductively coupled plasma mass spectrometry (ICP-MS). Results were calculated as ruthenium concentration per cell (assuming the average volume of cell was 1.7 pL [31]).

Setting [5] is: air-equilibrated conditions, excitation 463 nm.

As a reminder, the IC50 is the concentration that gives 50% inhibition. Read a high IC50 as weaker potency in that assay. In the case of `Cc1ccnc(-c2cc(C)ccn2)c1.[Ru+2].c1ccc(-c2ccnc3c2ccc2c(-c4ccccc4)ccnc23)cc1.c1ccc(-c2ccnc3c2ccc2c(-c4ccccc4)ccnc23)cc1` [[Ru(dip)2(CH3bpy-CH3)]^2+], the IC50 is 9.32 ± 1.37 µM in data set [1] (medium with serum (2 %)); 4.9 ± 0.3 µM in data set [1] (medium without serum); 8.32 ± 0.06 µM in data set [2] (with serum (2%)); 3.36 ± 0.35 µM in data set [2] (without serum); 6.28 ± 0.52 µM in data set [3] (with serum (2%)); 2.45 ± 0.42 µM in data set [3] (without serum). The “τ, luminescence lifetime” value was 690 ± 10 ns in data set [4] (air-equilibrated conditions) and 2.23 ± 0.01 µs in data set [4] (deoxygenated conditions). Also, the “φ, quantum yield of luminescence” value in data set [4] (setting [5]) is given as 0.0254 ± 0.0009; in data set [4] (deoxygenated conditions) it was 0.0778 ± 0.0016.
Regarding “[Ru(dip)2(1,3-dicyclohexyl-1-[4-carbonyl-(4′-methyl-2,2′-bipyridyl)]-urea)]Cl2 [[Ru(dip)2(CH3bpy-DCU)]^2+]”, the IC50 in data set [1] (medium with serum (2 %)) amounted to 9.01 ± 1.33 µM; in data set [1] (medium without serum) it was 4.71 ± 0.18 µM; in data set [2] (with serum (2%)), 5.84 ± 0.24 µM; in data set [2] (without serum), 2.28 ± 0.61 µM; in data set [3] (with serum (2%)), 4.62 ± 0.22 µM; in data set [3] (without serum), 2.54 ± 1.12 µM. For the same compound, the “relative ruthenium accumulation in cells” value in the data set with 4T1 cells is listed as “highest accumulation”. Besides, the “τ, luminescence lifetime” value amounted to 460 ± 10 ns in data set [4] (air-equilibrated conditions) and 1.85 ± 0.02 µs in data set [4] (deoxygenated conditions). The “φ, quantum yield of luminescence” value was determined as 0.0044 ± 0.0002 in data set [4] (setting [5]) and 0.0049 ± 0.0002 in data set [4] (deoxygenated conditions).
For `Cc1ccnc(-c2cc(C(=O)[O-])ccn2)c1.[Ru+2].c1ccc(-c2ccnc3c2ccc2c(-c4ccccc4)ccnc23)cc1.c1ccc(-c2ccnc3c2ccc2c(-c4ccccc4)ccnc23)cc1` [[Ru(dip)2(CH3bpy-COO)]^+], the IC50 was 13.9 ± 3 µM in data set [1] (medium with serum (2 %)); 8.66 ± 1.47 µM in data set [1] (medium without serum); 18.1 ± 2.19 µM in data set [2] (with serum (2%)); 7.74 ± 1.26 µM in data set [2] (without serum); 16 ± 1.5 µM in data set [3] (with serum (2%)); 7.23 ± 0.53 µM in data set [3] (without serum). Also, the “relative ruthenium accumulation in cells” value in the data set on 4T1 cells is “much smaller accumulation than the rest of the studied complexes”. For the same compound, the “τ, luminescence lifetime” value in data set [4] (air-equilibrated conditions) was determined as 530 ± 10 ns; in data set [4] (deoxygenated conditions) it was 1.02 ± 0.01 µs. In addition, the figures for the “φ, quantum yield of luminescence” value in data set [4] (setting [5]) and in data set [4] (deoxygenated conditions) were 0.0226 ± 0.0012 and 0.0429 ± 0.0004, respectively.
On to `O=[N+]([O-])c1nccn1CCCc1ccnc(-c2ccccn2)c1.[Ru+2].c1ccc(-c2ccnc3c2ccc2c(-c4ccccc4)ccnc23)cc1.c1ccc(-c2ccnc3c2ccc2c(-c4ccccc4)ccnc23)cc1` [[Ru(dip)2(bpy-NitroIm)]^2+], for which the IC50 worked out at 18.8 ± 1.29 µM in data set [1] (medium with serum (2 %)); 10.6 ± 1.05 µM in data set [1] (medium without serum); 10.4 ± 1.31 µM in data set [2] (with serum (2%)); 6.08 ± 0.7 µM in data set [2] (without serum); 7.4 ± 0.81 µM in data set [3] (with serum (2%)); 4.65 ± 0.62 µM in data set [3] (without serum).
`[Ru+2].c1ccc(-c2ccccn2)nc1.c1ccc(-c2ccnc3c2ccc2c(-c4ccccc4)ccnc23)cc1.c1ccc(-c2ccnc3c2ccc2c(-c4ccccc4)ccnc23)cc1` [[Ru(dip)2(bpy)]^2+]: the IC50 came to 13.6 ± 1.75 µM in data set [1] (medium with serum (2 %)); 6.79 ± 1.09 µM in data set [1] (medium without serum); 11.7 ± 1.6 µM in data set [2] (with serum (2%)); 4.7 ± 0.41 µM in data set [2] (without serum); 16.7 ± 1.88 µM in data set [3] (with serum (2%)); 4.15 ± 0.57 µM in data set [3] (without serum). Also, the “τ, luminescence lifetime” value was determined as 760 ± 10 ns in data set [4] (air-equilibrated conditions) and 2.51 ± 0.01 µs in data set [4] (deoxygenated conditions). Further, the “φ, quantum yield of luminescence” value in data set [4] (setting [5]) is 0.0367 ± 0.0004; in data set [4] (deoxygenated conditions), 0.1245 ± 0.0004.
